Assay results taken from article PMC6718442, “11β-Hydroxysteroid dehydrogenases control access of 7β,27-dihydroxycholesterol to retinoid-related orphan receptor γ” (Journal of Lipid Research, 2019).

Experiments:
[1] = target: T1, 11β-HSD2 (Homo sapiens, UniProt P80365); test: 11β-HSD2 enzyme kinetics (apparent KM and Vmax) in HEK-293 cell lysate; format: biochemical
T1 construct: expressed in transfected cells
T1 sequence (P80365 1-405): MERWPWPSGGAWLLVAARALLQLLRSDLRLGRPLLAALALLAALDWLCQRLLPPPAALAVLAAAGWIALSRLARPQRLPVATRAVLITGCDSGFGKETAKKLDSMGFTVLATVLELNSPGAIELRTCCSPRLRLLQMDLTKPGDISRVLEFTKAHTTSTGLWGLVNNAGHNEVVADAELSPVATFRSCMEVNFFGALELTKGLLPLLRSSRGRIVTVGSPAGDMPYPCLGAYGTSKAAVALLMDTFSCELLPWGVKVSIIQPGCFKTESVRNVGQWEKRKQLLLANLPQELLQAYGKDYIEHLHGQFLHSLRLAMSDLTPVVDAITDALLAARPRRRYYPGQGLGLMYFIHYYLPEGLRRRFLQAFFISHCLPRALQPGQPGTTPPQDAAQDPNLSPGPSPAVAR
Description: For 11β-HSD2 activity measurements, 0.8 μg of HEK-293 cell lysate stably expressing 11β-HSD2 was incubated with different concentrations (50–800 nM) of 7β27OHC and 500 μM of NAD^+ for 10–30 min. Oxysterols were extracted as described in the 11β-HSD-dependent metabolism of 7-oxygenated 27OHCs in intact cells section.
The substrate conversion was kept below 30% in all reactions. Apparent kinetic parameters (KM and Vmax) were determined by nonlinear regression and under the assumption of Michaelis-Menten kinetics. Data (mean ± SD) were obtained from three independent experiments.

[2] = target: T2, human 11β-HSD1 (Homo sapiens, UniProt P28845); test: 11β-HSD1 enzyme kinetics (apparent KM and Vmax) in microsomes; format: biochemical
T2 construct: expressed in transfected cells
Description: Microsomes were prepared as described earlier with minor modifications ([38]). Briefly, HEK-293 cells stably expressing human 11β-HSD1 and H6PDH were cultured until they reached confluence. Then, they were washed with ice-cold PBS and resuspended to a final concentration of ∼2 × 10^7 cells/ml in ice-cold buffer A [50 mM Tris (pH 7.5), 1 mM EDTA, 100 mM NaCl]. Typically, 6 ml of this suspension were prepared, corresponding to 1.2 × 10^8 cells. Following homogenization with 20 strokes in a glass potter on ice, the preparation was sonicated and centrifuged (9.000 g, 4°C for 30 min). The supernatant was removed and subjected to ultracentrifugation at 105,000 g, 4°C for 70 min. The obtained pellet was resuspended in buffer B [20 mM Tris (pH 7.5), 1 mM EDTA, 10% glycerol] and the ultracentrifugation step repeated. The microsomal fraction was again resuspended in buffer B and the total protein concentration determined using BCA assay ([39]). The microsomes were immediately frozen on dry ice and stored at −80°C.
Microsomes (1–20 μg) expressing 11β-HSD1 and H6PDH were incubated for 20 min with 1 mM of NADPH, 2 mM of glucose-6-phosphate, 0.1 units of glucose-6-phosphate dehydrogenase (from Saccharomyces cerevisiae), and different concentrations (62.5–2,000 nM) of 7k27OHC, adapted to a total assay volume of 50 μl with TS2 buffer [100 mM NaCl, 1 mM EGTA, 1 mM EDTA, 1 mM MgCl2, 250 mM sucrose, 20 mM Tris/HCl (pH 7.4)]. Oxysterols were extracted by mixing the samples with ice-cold ethyl acetate containing 100 nM deuterium-labeled 7β27OHC as internal standard and 1.5% (v/v) BHT/TPP solution as antioxidant. […] After reconstitution in 50 μl of methanol:ultra-pure water (1:1, v/v), the samples were centrifuged (4°C, 16,000 g for 10 min) and analyzed by UHPLC-MS/MS.
The substrate conversion was kept below 30% in all reactions. Apparent kinetic parameters (KM and Vmax) were determined by nonlinear regression and under the assumption of Michaelis-Menten kinetics. […]

[3] = oxidation of substrate by 11β-HSD2, cell lysate
[4] = oxoreduction of substrate by 11β-HSD1, microsomes

T2 sequence (P28845 whole entry): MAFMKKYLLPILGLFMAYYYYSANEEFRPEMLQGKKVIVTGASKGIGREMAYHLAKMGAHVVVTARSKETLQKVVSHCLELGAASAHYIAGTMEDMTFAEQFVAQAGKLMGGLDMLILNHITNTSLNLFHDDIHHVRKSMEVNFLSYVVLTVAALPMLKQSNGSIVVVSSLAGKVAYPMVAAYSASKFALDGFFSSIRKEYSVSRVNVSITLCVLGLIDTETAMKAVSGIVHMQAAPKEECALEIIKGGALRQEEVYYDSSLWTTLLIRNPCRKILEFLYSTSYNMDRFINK

Row | SMILES | KMapp [1, 3] | Vmax app [1, 3] | Substrate affinity of 11β-HSD2, times higher than for cortisol ([1]; versus cortisol KMapp ∼200 nM) | KMapp [2, 4] | Vmax app [2, 4] | Affinity of 11β-HSD1, times higher than for other endogenous substrates ([2]; versus cortisone, 11-DHC, 7kC, 7oxoLCA)
1 | CC(CO)CCC[C@@H](C)[C@H]1CC[C@H]2[C@@H]3[C@@H](O)C=C4C[C@@H](O)CC[C@]4(C)[C@H]3CC[C@]12C (stereo partly drawn) [7β27OHC, 7β,27-dihydroxycholesterol] | 56 ± 11 nM | 10 ± 0.4 nmol·h^−1·mg total protein^−1 | ~4 times | – | – | –
2 | CC(CO)CCC[C@@H](C)[C@H]1CC[C@H]2[C@@H]3C(=O)C=C4C[C@@H](O)CC[C@]4(C)[C@H]3CC[C@]12C (stereo partly drawn) [7k27OHC, 7-keto,27-hydroxycholesterol] | – | – | – | 39 ± 12 nM | 4.3 ± 0.2 nmol·h^−1·mg total protein^−1 | 6-25 times
